Source: ChEMBL document CHEMBL4837212, “Cytotoxic Compounds from the Stem Bark of Two subsp. of Bersama abyssinica” (J Nat Prod, 2021)
Converted amounts (≈) assume the structure as drawn. The source made the active and inactive calls. The calls are words filed in the database; no cut-off is given here.

How the values were obtained:
[1] = test system: Staphylococcus aureus; assay: Antibacterial activity against Staphylococcus aureus DSM 346 assessed as growth inhibition by serial dilution assay; format: functional
[2] = test system: Escherichia coli; assay: Antibacterial activity against Escherichia coli ATCC 8739 assessed as inhibition of bacterial growth measured after 18 hrs by Alamar blue assay; format: functional
[3] = test system: Bacillus subtilis; assay: Antibacterial activity against Bacillus subtilis DSM 10 assessed as growth inhibition by serial dilution assay; format: functional
[4] = test system: Mycolicibacterium smegmatis; assay: Antibacterial activity against Mycobacterium smegmatis DSM ATCC 700084 assessed as growth inhibition by serial dilution assay; format: functional, organism-based
[5] = test system: KB 3-1; assay: Cytotoxicity in human KB 3-1 cells assessed as reduction in cell viability measured after 5 days by MTT assay; format: functional, cell-based; details: KB 3-1, 120 h
[6] = test system: Escherichia coli; assay: Antibacterial activity against Escherichia coli DSM 1116 assessed as growth inhibition by serial dilution assay; format: functional

Row | SMILES | MIC [1] | MIC [2] | MIC [3] | Activity [4] | IC50 [5] | MIC [6]
1 | O=c1c2cc(O)c(O)cc2oc2cc(O)c([C@H]3O[C@@H](CO)[C@H](O)[C@@H](O)[C@@H]3O)c(O)c12 | 158 µM (≈ 66.7 µg/mL) | 36.7 µM (≈ 15.5 µg/mL) | 158 µM (≈ 66.7 µg/mL) | inactive | – | –
2 | CC12O[C@H]3C[C@@H](O1)[C@]1(C)[C@H]4CC[C@]5(C)[C@@H](c6ccc(=O)oc6)[C@@H](O)C[C@]5(O)[C@@H]4CC[C@@]1(C3)O2 | – | – | – | inactive | 1.6 µM | –
3 | O=C(OC[C@H]1O[C@@H](OC(=O)c2cc(O)c(O)c(O)c2)[C@H](OC(=O)c2cc(O)c(O)c(O)c2)[C@@H](OC(=O)c2cc(O)c(O)c(O)c2)[C@@H]1O)c1cc(O)c(O)c(O)c1 | – | – | – | inactive | – | –
4 | CC12O[C@H]3C[C@@H](O1)[C@]1(C)[C@H]4CC[C@@]5(C)C(=CC(=O)[C@@H]5c5ccc(=O)oc5)[C@@H]4CC[C@@]1(C3)O2 | 152 µM (≈ 66.7 µg/mL) | – | – | inactive | 1.4 µM | –
5 | COC1=C2[C@@H]3CC[C@@]45C[C@@H]6C[C@@H](OC(C)(O6)O4)[C@]5(C)[C@H]3CC[C@]2(C)[C@@H](c2ccc(=O)oc2)C1=O | 142 µM (≈ 66.8 µg/mL) | – | – | inactive | – | –
6 | O=C(OC[C@H]1O[C@@H](OC(=O)c2cc(O)c(O)c(O)c2)[C@H](OC(=O)c2cc(O)c(O)c(O)c2)[C@@H](O)[C@@H]1O)c1cc(O)c(O)c(O)c1 | – | – | – | inactive | – | 52.4 µM (≈ 33.4 µg/mL)
